Source: US8952024B2, “Herbicidal pyrimidone derivatives” (E I du Pont de Nemours and Company, priority 2009, dated 2015)

What was measured:
Type in all cases: in vivo
[1] = test system: bermudagrass (Cynodon dactylon); experiment: Test B pre-/postemergence plant response
Summary of the method: (§1)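 Response scores were assigned visually after 13 to 15 days in a greenhouse, comparing treated pots with controls on a 0–100 scale where 100 denotes complete control. Preemergence treatments went onto freshly seeded loam/sand soil; postemergence treatments onto plants 2 to 18 cm tall.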

[2] = test system: cocklebur (Xanthium strumarium); experiment: Test B pre-/postemergence plant response; settings: Preemergence
Summary of the method: as §1

corn (Zea mays) = experiment: Test B pre-/postemergence plant response
Summary of the method: as §1

[3] = test system: giant foxtail (Setaria faberii); experiment: Test B pre-/postemergence plant response
Summary of the method: as §1

[4] = test system: green foxtail (Setaria viridis); experiment: Test B pre-/postemergence plant response
Summary of the method: as §1

[5] = test system: johnsongrass (Sorghum halepense); experiment: Test B pre-/postemergence plant response
Summary of the method: as §1

kochia (Kochia scoparia) = experiment: Test B pre-/postemergence plant response; settings: Postemergence; for Plant response rating, Kochia: scale 0 (no effect) to 100 (complete control)
Summary of the method: as §1

[6] = test system: lambsquarters (Chenopodium album); experiment: Test B pre-/postemergence plant response
Summary of the method: as §1

[7] = test system: pigweed (Amaranthus retroflexus); experiment: Test B pre-/postemergence plant response
Summary of the method: as §1

[8] = test system: ragweed (common ragweed, Ambrosia elatior); experiment: Test B pre-/postemergence plant response
Summary of the method: as §1

soybean (Glycine max) = experiment: Test B pre-/postemergence plant response
Summary of the method: as §1

wild oat (Avena fatua) = experiment: Test B pre-/postemergence plant response
Summary of the method: as §1

[9] = test system: barnyardgrass (Echinochloa crus-galli); experiment: Test B flooded paddy test; settings: for Plant response rating, Barnyardgrass: Flood (flooded paddy test), 13 to 15 days
Summary of the method: (§2)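 Visual scores run from 0 (no effect) to 100 (complete control), assigned by comparison with controls 13 to 15 days after treatment. Test compounds went straight into water standing 3 cm above the soil, around plants at the 2-leaf stage kept in a greenhouse.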

[10] = test system: ducksalad (Heteranthera limosa); experiment: Test B flooded paddy test; settings: for Plant response rating, Ducksalad: Flood (flooded paddy test), 13 to 15 days
Summary of the method: as §2

rice (Oryza sativa) = experiment: Test B flooded paddy test; settings: for Plant response rating, Rice: Flood (flooded paddy test), 13 to 15 days
Summary of the method: as §2

[11] = test system: umbrella sedge (Cyperus difformis); experiment: Test B flooded paddy test; settings: for Plant response rating, Sedge, Umbrella: Flood (flooded paddy test), 13 to 15 days
Summary of the method: as §2

[12] = 250 g ai/ha, Preemergence, 0 to 100 scale
[13] = Postemergence, 31 g ai/ha, scale 0 to 100 (0 no effect, 100 complete control)
[14] = Postemergence, 62 g ai/ha, scale 0 (no effect) to 100 (complete control), 13 to 15 days
[15] = Postemergence, 125 g ai/ha, visual rating after 13 to 15 days, scale 0 (no effect) to 100 (complete control)
[16] = Postemergence, 250 g ai/ha, scale 0 to 100
[17] = Preemergence, 31 g ai/ha, scale 0 to 100 (0 no effect, 100 complete control)
[18] = Preemergence, 62 g ai/ha, scale 0 to 100, 0 no effect, 100 complete control
[19] = Preemergence, 125 g ai/ha, 0 to 100 scale
[20] = 250 g ai/ha, flooded paddy test, visual rating on 0 to 100 scale (0 no effect, 100 complete control) after 13 to 15 days
[21] = 31 g ai/ha, scale of 0 to 100 where 0 is no effect and 100 is complete control
[22] = 62 g ai/ha, scale 0 to 100, 0 is no effect, 100 is complete control
[23] = 125 g ai/ha, scale 0 to 100, 0 is no effect, 100 is complete control

## O=C1CCCC(O)=C1C(=O)c1cnc(-c2ccccc2)n(-c2ccccc2Br)c1=O [Compound 37]
[1]; [12]
  Plant response rating, Bermudagrass: 100
[1]; [13]
  Plant response rating, Bermudagrass: 85
[1]; [14]
  Plant response rating, Bermudagrass: 90
[1]; [15]
  Plant response rating, Bermudagrass: 98
[1]; [16]
  Bermudagrass plant response rating: 100
[1]; [17]
  Plant response rating, Bermudagrass: 10
[1]; [18]
  Plant response rating, Bermudagrass: 80
[1]; [19]
  Bermudagrass plant response rating: 98
[2]; 250 g ai/ha, 0 to 100 scale
  Plant response rating, Cocklebur: 45
[2]; 31 g ai/ha, scale 0 to 100 (0 no effect, 100 complete control)
  Plant response rating, Cocklebur: 0
[2]; 125 g ai/ha, 0 to 100 scale
  Cocklebur plant response rating: 0
Corn (Zea mays); [12]
  Plant response rating, Corn: 0
Corn (Zea mays); [13]
  Plant response rating, Corn: 0
Corn (Zea mays); [14]
  Plant response rating, Corn: 15
Corn (Zea mays); [15]
  Plant response rating, Corn: 60
Corn (Zea mays); [16]
  Corn plant response rating: 75
Corn (Zea mays); [17]
  Plant response rating, Corn: 0
Corn (Zea mays); [18]
  Plant response rating, Corn: 0
Corn (Zea mays); [19]
  Corn plant response rating: 0
[3]; [12]
  Plant response rating, Foxtail, Giant: 75
[3]; [13]
  Plant response rating, Foxtail, Giant: 70
[3]; [14]
  Plant response rating, Foxtail, Giant: 85
[3]; [15]
  Plant response rating, Foxtail, Giant: 95
[3]; [16]
  Foxtail, Giant plant response rating: 100
[3]; [17]
  Plant response rating, Foxtail, Giant: 0
[3]; [18]
  Plant response rating, Foxtail, Giant: 0
[3]; [19]
  Foxtail, Giant plant response rating: 0
[4]; [12]
  Plant response rating, Foxtail, Green: 90
[4]; [13]
  Plant response rating, Foxtail, Green: 60
[4]; [14]
  Plant response rating, Foxtail, Green: 65
[4]; [15]
  Plant response rating, Foxtail, Green: 85
[4]; [16]
  Foxtail, Green plant response rating: 95
[4]; [17]
  Plant response rating, Foxtail, Green: 0
[4]; [18]
  Plant response rating, Foxtail, Green: 0
[4]; [19]
  Foxtail, Green plant response rating: 0
[5]; [12]
  Plant response rating, Johnsongrass: 90
[5]; [14]
  Plant response rating, Johnsongrass: 40
[5]; [15]
  Plant response rating, Johnsongrass: 60
[5]; [16]
  Johnsongrass plant response rating: 85
[5]; [17]
  Plant response rating, Johnsongrass: 0
[5]; [18]
  Plant response rating, Johnsongrass: 0
[5]; [19]
  Johnsongrass plant response rating: 45
Kochia (Kochia scoparia); 62 g ai/ha, 13 to 15 days
  Plant response rating, Kochia: 0
Kochia (Kochia scoparia); 125 g ai/ha, visual rating after 13 to 15 days
  Plant response rating, Kochia: 15
Kochia (Kochia scoparia); 250 g ai/ha, scale 0 to 100
  Kochia plant response rating: 65
[6]; [12]
  Plant response rating, Lambsquarters: 100
[6]; [14]
  Plant response rating, Lambsquarters: 98
[6]; [15]
  Plant response rating, Lambsquarters: 98
[6]; [16]
  Lambsquarters plant response rating: 100
[6]; [17]
  Plant response rating, Lambsquarters: 95
[6]; [18]
  Plant response rating, Lambsquarters: 98
[6]; [19]
  Lambsquarters plant response rating: 100
[7]; [12]
  Plant response rating, Pigweed: 100
[7]; [14]
  Plant response rating, Pigweed: 85
[7]; [15]
  Plant response rating, Pigweed: 98
[7]; [17]
  Plant response rating, Pigweed: 100
[7]; [19]
  Pigweed plant response rating: 100
[8]; [12]
  Plant response rating, Ragweed: 98
[8]; [14]
  Plant response rating, Ragweed: 80
[8]; [15]
  Plant response rating, Ragweed: 95
[8]; [17]
  Plant response rating, Ragweed: 0
[8]; [19]
  Ragweed plant response rating: 65
Soybean (Glycine max); [12]
  Plant response rating, Soybean: 35
Soybean (Glycine max); [14]
  Plant response rating, Soybean: 80
Soybean (Glycine max); [15]
  Plant response rating, Soybean: 95
Soybean (Glycine max); [17]
  Plant response rating, Soybean: 0
Soybean (Glycine max); [19]
  Soybean plant response rating: 0
Wild oat (Avena fatua); [12]
  Plant response rating, Oat, Wild: 10
Wild oat (Avena fatua); [14]
  Plant response rating, Oat, Wild: 10
Wild oat (Avena fatua); [15]
  Plant response rating, Oat, Wild: 40
Wild oat (Avena fatua); [17]
  Plant response rating, Oat, Wild: 0
Wild oat (Avena fatua); [19]
  Oat, Wild plant response rating: 0
[9]; [20]
  Plant response rating, Flood, Barnyardgrass: 0
[9]; [21]
  Plant response rating, Barnyardgrass: 0
[9]; [22]
  Plant response rating, Barnyardgrass: 0
[9]; [23]
  Plant response rating, Barnyardgrass: 0
[10]; [20]
  Plant response rating, Flood, Ducksalad: 60
[10]; [21]
  Plant response rating, Ducksalad: 0
[10]; [22]
  Plant response rating, Ducksalad: 30
[10]; [23]
  Plant response rating, Ducksalad: 50
Rice (Oryza sativa); [20]
  Plant response rating, Flood, Rice: 20
Rice (Oryza sativa); [21]
  Plant response rating, Rice: 0
Rice (Oryza sativa); [22]
  Plant response rating, Rice: 0
Rice (Oryza sativa); [23]
  Plant response rating, Rice: 0
[11]; [20]
  Plant response rating, Flood, Sedge, Umbrella: 40
[11]; [21]
  Plant response rating, Sedge, Umbrella: 0
[11]; [22]
  Plant response rating, Sedge, Umbrella: 20
[11]; [23]
  Plant response rating, Sedge, Umbrella: 30
